Laboratory results published in patent publication US20060252714A1, “Pharmaceutical compositions and methods for treating multidrug resistant cancer” (priority 2003, published 2006).
Counter-ions that a name gives are not always drawn. Like-named read-outs stand apart in the source and are kept apart here.

Key:
[1] = cited from earlier work; for Toxicity: at the toxic dose range of the same line
[2] = tested on: MCF-7/wt; assay: Breast cancer clonogenic assay, MCF-7/wt; format: cell-based; conditions: Homo sapiens, MCF7, 24 hours treatment, clonogenicity, read-out: IC90 of cytotoxic drugs on MCF-7/wt
Description: (§1) The toxicity of the cytotoxic drugs was measured by clonogenicity assay. […] Beginning at 1 μM, ketotifen restored doxorubicin toxicity while at 10 μM, the MDR phenotype of MCF-7/adr cells was completely reversed. Over this concentration range, ketotifen itself is non-toxic to MCP-7/adr cells. […] As summarized in Table 3, IC90 levels on MCF-7/adr cells in the presence of ketotifen are almost identical to those for parental MCF-7 cells. […] Thus, ketotifen is a specific reversing agent for MDR associated with P-gp.
(§2) MCF-7 (MCF-7/wt) and its multidrug resistant variant MCF-7/adr cells were used. MCF-7/mx and MCF-7/vp cell lines were also used. Other cell lines could also be used. […] The MCF-7/vp cell line was selected with etoposide and overexpresses Multidrug Resistance-associated Protein gene (MRP). All the cell lines were grown routinely as monolayer culture in Dulbecco's Minimal Essential Media (DME) supplemented with L-glutamine (2 mM), penicillin, streptomycin and 10% heat-inactivated fetal bovine serum SUBS, GIBCO) in an atmosphere of 5% CO2 at 37° C. The cell lines were passaged weekly.
Exponentially growing MCF-7/wt and its three mutants MCF-7/adr, MCF-7/mx and MCF-7/vp were trypsinized, washed with fresh medium and plated in 6-well plates at a density of 1×10^5/ml. […] Both adherent and non-adherent cells were collected and washed with fresh medium. Cell aliquots (5×10^3) were plated in 1 ml of 0.3% agar over 1 ml of 0.5% agar underlayer prepared in IMDM containing 10% horse serum (GIBCO). The upper layer consisted of 20% FBS, 10 μg/ml of bovine insulin, 2.5 mg/ml of hydrocortisone, 5×10^−7M of 17-b-estradiol (Sigma) and 50 ng/ml of EGF (R & D Systems). Colonies larger than 50 μm in size were scored after 14 days of incubation at 37° C. in a humidified atmosphere of 5% CO2 in air.

[3] = tested on: MCF-7/adr cells; assay: Breast cancer clonogenic assay, MCF-7/adr; format: cell-based; conditions: Homo sapiens, NCI/ADR-RES, presence of 10 mM of ketotifen (so in the source), read-out: IC90 of cytotoxic drugs on MCF-7/adr, +ke
[4] = Modulation of doxorubicin toxicity: survival; conditions: doxorubicin 15 mg/kg i.p., alone or after labelled reversal agent 25 mg/kg i.p.
Source text: Female Balb/c mice (8-10 weeks of age, 20-22 g of body weight) were purchased from Jackson Laboratory (Maine, USA). Protocols were approved by the Animal Care Committee of the University Health Network. […] All the treatments were administrated via i.p. After treatment, mice were kept in sterile environment for six to eight weeks. […] Three mice from each group were sacrificed on day 4-post treatment. Hearts were removed immediately and fixed in 10% neutral buffered formalin. Tissue sections were made from heart tissue and stained with hematoxylin and eosin or with 1% Toluidine blue to identify mast cells. All the slides were evaluated by light microscopy for cardiac damage, mast cell density and degranulation.
All the colony data were analyzed by two-way analysis of variance (ANOVA), with differences between individual means determined by Bonferroni's post-tests. Data were expressed as means ±SEM. The Kaplan-Meier estimate was used to determine differences in the survival periods for mice following different drug combination treatments.

[5] = tested on: MCF-7/adr cells; assay: Breast cancer clonogenic assay, MCF-7/adr; format: cell-based, Human; conditions: for IC90: Homo sapiens, NCI/ADR-RES, absence of ketotifen, read-out: IC90 of cytotoxic drugs on MCF-7/adr, −ke
Description: MCF-7/adr cells were treated with different concentrations of reversal compounds with or without 2 μM doxorubicin for 24 hours. Cells were harvested, and plated for growth of breast cancer colonies in triplicates. […] DXN: doxorubicin.
FIG. 2 Influence of 10 μM of ketotifen on the toxicities of four cytotoxic drugs. MCF-7/adr cells were treated with different concentrations of chemotherapeutic agents in the presence or absence of 10 μM ketotifen for 24 hours. Cells were harvested, washed and plated for growth of breast cancer colonies as described in the Materials and Methods. […] Ke: ketotifen.
The toxicity of the cytotoxic drugs was measured by clonogenicity assay.
as §2, with “MCF-7/mx” for “MCF-7 (MCF-7/wt) and its multidrug resistant variant MCF-7/adr cells were used. MCF-7/mx”
Both adherent and non-adherent cells were collected and washed with fresh medium. Cell aliquots (5×10^3) were plated in 1 ml of 0.3% agar over 1 ml of 0.5% agar underlayer prepared in IMDM containing 10% horse serum (GIBCO). The upper layer consisted of 20% FBS, 10 μg/ml of bovine insulin, 2.5 mg/ml of hydrocortisone, 5×10^−7M of 17-b-estradiol (Sigma) and 50 ng/ml of EGF (R & D Systems).

[6] = tested on: MCF-7/vp cells; assay: Breast cancer clonogenic assay, MCF-7/vp (MRP overexpressing); format: cell-based, Human
Description: (§3) FIG. 3 Ketotifen fails to reverse MDR of MCF-7/mx and MCF-7/vp cell lines. MCF-7/mx and MCF-7/vp cell lines were treated and assayed as described in FIGS. 1 and 2. […] Ke: ketotifen.
as §1
(§4) MCF-7 (MCF-7/wt) and its multidrug resistant variant MCF-7/adr cells were used. MCF-7/mx and MCF-7/vp cell lines were also used. Other cell lines could also be used. […] The MCF-7/vp cell line was selected with etoposide and overexpresses Multidrug Resistance-associated Protein gene (MRP). […]
(§5) Exponentially growing MCF-7/wt and its three mutants MCF-7/adr, MCF-7/mx and MCF-7/vp were trypsinized, washed with fresh medium and plated in 6-well plates at a density of 1×10^5/ml. […] Colonies larger than 50 μm in size were scored after 14 days of incubation at 37° C. in a humidified atmosphere of 5% CO2 in air.

[7] = target: P-gp (Homo sapiens, UniProt P08183); conditions: 2.5 h, 2 μM
Chain of P-gp (P08183 whole entry): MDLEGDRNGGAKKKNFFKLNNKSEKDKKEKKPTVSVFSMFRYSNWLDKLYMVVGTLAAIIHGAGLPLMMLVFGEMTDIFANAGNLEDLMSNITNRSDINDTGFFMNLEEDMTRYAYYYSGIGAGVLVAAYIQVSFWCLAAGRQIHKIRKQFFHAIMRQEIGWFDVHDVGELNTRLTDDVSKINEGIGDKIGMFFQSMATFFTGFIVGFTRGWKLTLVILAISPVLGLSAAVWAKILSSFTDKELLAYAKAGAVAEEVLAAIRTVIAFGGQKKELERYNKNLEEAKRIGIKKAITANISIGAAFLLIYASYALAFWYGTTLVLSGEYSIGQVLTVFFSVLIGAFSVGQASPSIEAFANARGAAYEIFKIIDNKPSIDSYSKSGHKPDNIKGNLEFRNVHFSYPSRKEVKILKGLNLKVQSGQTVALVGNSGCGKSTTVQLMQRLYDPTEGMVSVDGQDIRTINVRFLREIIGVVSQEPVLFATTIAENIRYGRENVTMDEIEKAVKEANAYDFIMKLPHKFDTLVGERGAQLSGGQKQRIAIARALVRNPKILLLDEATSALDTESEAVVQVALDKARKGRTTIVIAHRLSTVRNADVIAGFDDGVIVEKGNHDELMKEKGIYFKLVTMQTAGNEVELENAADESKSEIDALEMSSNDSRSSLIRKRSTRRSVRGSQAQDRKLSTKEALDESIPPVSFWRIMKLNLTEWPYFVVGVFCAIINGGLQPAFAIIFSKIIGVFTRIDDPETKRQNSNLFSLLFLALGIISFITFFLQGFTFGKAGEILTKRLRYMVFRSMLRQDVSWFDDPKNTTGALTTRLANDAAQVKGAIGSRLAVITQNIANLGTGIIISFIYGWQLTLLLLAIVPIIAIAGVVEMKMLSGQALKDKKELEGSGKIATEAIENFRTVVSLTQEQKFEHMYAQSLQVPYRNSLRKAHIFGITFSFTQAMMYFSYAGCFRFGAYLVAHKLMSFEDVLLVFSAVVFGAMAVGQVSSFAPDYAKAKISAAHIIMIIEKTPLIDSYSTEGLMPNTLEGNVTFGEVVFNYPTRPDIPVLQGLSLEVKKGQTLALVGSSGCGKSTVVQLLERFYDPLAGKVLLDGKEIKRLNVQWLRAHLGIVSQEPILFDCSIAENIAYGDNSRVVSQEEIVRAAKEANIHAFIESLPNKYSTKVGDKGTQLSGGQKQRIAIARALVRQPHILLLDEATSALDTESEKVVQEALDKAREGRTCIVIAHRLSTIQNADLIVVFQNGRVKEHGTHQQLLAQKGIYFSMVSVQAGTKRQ

[8] = tested on: MCF-7/mx; assay: Breast cancer clonogenic assay, MCF-7/mx (BCRP overexpressing); format: cell-based, Human
Description: as §3, §1, §4, §5

[9] = tested on: P388/adr murine leukemia cells; assay: p388 multi-drug resistant leukemia model; format: in vivo, Mice; conditions: ketotifen 75 mg/kg i.p. 30 minutes before doxorubicin 4 mg/kg i.p., once per week
[10] = with 2 μM doxorubicin, 24 hours

**Q.** For `COc1cc(NS(C)(=O)=O)ccc1Nc1c2ccccc2nc2ccccc12` [Amsacrine], which Toxicity [1] is on record?
**A.** Its Toxicity is “Ventricular arrhythmia”.

**Q.** What does the source list for `CS(=O)(=O)OCCCCOS(C)(=O)=O` [Bisulfan]?
**A.** Toxic dose range ([1]; IV unless otherwise indicated): Oral daily dose; Toxicity [1]: Endocardial fibrosis

**Q.** With `O=P1(N(CCCl)CCCl)NCCCO1` (centres unmarked) [Cyclophosphamide] as the compound, how does the Toxic dose range ([1]; over 2 d, IV) read?
**A.** The Toxic dose range was greater than 100 to 120 mg/kg.

**Q.** Which Toxicity [1] does the source give for `COc1cccc2c1C(=O)c1c(O)c3c(c(O)c1C2=O)C[C@@](O)(C(C)=O)C[C@@H]3O[C@H]1C[C@H](N)[C@H](O)[C@H](C)O1` [Daunorubicin] here?
**A.** Its Toxicity is “Same toxocity as doxorubicin”.

**Q.** What about the Toxic dose range ([1]; total dose, IV) of the same compound?
**A.** Its Toxic dose range is greater than 550 mg/m^2.

**Q.** For `COc1cccc2c1C(=O)c1c(O)c3c(c(O)c1C2=O)C[C@@](O)(C(=O)CO)C[C@@H]3O[C@H]1C[C@H](N)[C@H](O)[C@H](C)O1` [Doxorubicin, 8S,10S)-10-[(3-amino-2,3,6-trideoxy-a-L-lyxo-hexopyranosyl)oxy]-8-glycolyl-7,8,9,10-tetrahydro-6,8,11-trihydroxy-1-methoxy-5,12-naphthacenedione hydrochloride], which IC90 [2] is on record?
**A.** The IC90 was 120 nM.

**Q.** What about the IC90 [3] of the same compound?
**A.** The IC90 was 180 nM.

**Q.** And the median survival time [4]?
**A.** Its median survival time is 19.3 days.

**Q.** What about the “survival rate at day 30” value [4] of the same compound?
**A.** Its value is 42%.

**Q.** What about the IC90 [5] of the same compound?
**A.** The IC90 was greater than 10000 nM.

**Q.** With `O=c1[nH]cc(F)c(=O)[nH]1` [Fluorouracil] as the compound, how does the Toxicity [1] read?
**A.** Its Toxicity is “Angina/myocardial infarction”.

**Q.** Which “Toxic dose range” value ([1]; IV unless otherwise indicated) does the source give for `CO[C@@]12[C@H](COC(N)=O)C3=C(C(=O)C(C)=C(N)C3=O)N1C[C@@H]1N[C@@H]12` [Mitomycin] here?
**A.** Its value is “Conventional dose”.

**Q.** With `O=C1c2c(O)ccc(O)c2C(=O)c2c(NCCNCCO)ccc(NCCNCCO)c21` [Mitoxantrone] as the compound, how does the IC90 [2] read?
**A.** The IC90 was 10 nM.

**Q.** What about the IC90 [3] of the same compound?
**A.** The IC90 was 20 nM.

**Q.** What about the IC90 [5] of the same compound?
**A.** Its IC90 is 220 nM.

**Q.** With `CC(=O)O[C@H]1C(=O)[C@@]2(C)[C@H]([C@H](OC(=O)c3ccccc3)[C@]3(O)C[C@H](OC(=O)[C@H](O)[C@@H](NC(=O)c4ccccc4)c4ccccc4)C(C)=C1C3(C)C)[C@]1(OC(C)=O)CO[C@@H]1C[C@@H]2O` [Paclitaxel] as the compound, how does the Toxicity [1] read?
**A.** Its Toxicity is “Bradycardia”.

**Q.** Which IC90 [2] does the source give for `COc1cc([C@@H]2c3cc4c(cc3[C@@H](O[C@@H]3O[C@@H]5CO[C@@H](C)O[C@H]5[C@H](O)[C@H]3O)[C@H]3COC(=O)[C@H]23)OCO4)cc(OC)c1O` [VP-16, etoposide] here?
**A.** The IC90 was 17000 nM.

**Q.** What about the IC90 [3] of the same compound?
**A.** The IC90 was 20000 nM.

**Q.** What about the IC90 [5] of the same compound?
**A.** Its IC90 is 220000 nM.

**Q.** For `CC[C@]1(O)C[C@@H]2CN(CCc3c([nH]c4ccccc34)[C@@](C(=O)OC)(c3cc4c(cc3OC)N(C)[C@H]3[C@@](O)(C(=O)OC)[C@H](OC(C)=O)[C@]5(CC)C=CCN6CC[C@]43[C@@H]65)C2)C1` [Vinblastine], which IC90 [2] is on record?
**A.** The IC90 was 800 nM.

**Q.** What about the IC90 [3] of the same compound?
**A.** Its IC90 is 1200 nM.

**Q.** What about the IC90 [5] of the same compound?
**A.** Its IC90 is 410000 nM.

**Q.** Which “Toxic dose range” value ([1]; IV unless otherwise indicated) does the source give for `CC[C@]1(O)C[C@H]2CN(CCc3c([nH]c4ccccc34)[C@@](C(=O)OC)(c3cc4c(cc3OC)N(C=O)[C@H]3[C@@](O)(C(=O)OC)[C@H](OC(C)=O)[C@]5(CC)C=CCN6CC[C@]43[C@@H]65)C2)C1` [Vincristine] here?
**A.** The value was “Conventional dose”.

**Q.** What about the Toxicity [1] of the same compound?
**A.** Its Toxicity is “Myocardial Infarction”.

**Q.** Which results are given for `CN1CCC(=C2c3ccccc3CC(=O)c3sccc32)CC1.O=C(O)/C=C/C(=O)O` [ketotifen, 4-(1-Methyl-4-piperidylidene)-4H-benzo[4,5]cyclohepta[1,2-b] thiophen-10(9H)-one hydrogen fumarate]?
**A.** influence on toxicity of VP-16 [6]: influenced neither; increase of doxorubicin relative fluorescence [7]: 50%; median survival time [4]: 23.2 days; survival rate at day 30 [4]: 57%; influence on toxicity of mitoxantrone [8]: influenced neither; sensitivity to mitoxantrone, VP-16 and vinblastine ([5]; 10 μM ketotifen): restored; reversal of doxorubicin resistance ([5]; ketotifen compared with verapamil): reverse resistance at similar concentrations; toxicity of ketotifen itself ([5]; over 1 to 10 μM, without doxorubicin): non-toxic; ketotifen concentration at which MDR phenotype was completely reversed [5, 10]: 10 µM; ketotifen concentration from which doxorubicin toxicity is restored [5, 10]: ≥ 1 µM; extension of survival compared to doxorubicin alone [9]: 2 days

**Q.** Which results are given for `COc1ccc(CCN(C)CCCC(C#N)(c2ccc(OC)c(OC)c2)C(C)C)cc1OC` (centres unmarked) [verapamil]?
**A.** median survival time [4]: 12.3 days; survival rate at day 30 [4]: 0%
